Experimental data: PubChem BioAssay AID1645871

conditions: pampa; pH 5.0; 30.0 min; 50.0 µM

Point of comparison: `CCCCN(C)C(=O)c1c(C)sc2ccn(CCC)c(=O)c12`, Papp 113 ×10⁻⁶ cm/s. Against it:
- CCCN1C(CC(C)C)=NS(=O)(=O)c2cc(NC(=O)c3cccs3)ccc21 — 2.4-fold higher, 275 ×10⁻⁶ cm/s
- COc1ccccc1N1CCN(CCN(C(=O)c2ccc(F)cc2)c2ccccn2)CC1 — 1.5-fold lower, 73 ×10⁻⁶ cm/s
- FC(F)(F)c1ccc(CN2CCNc3cc(Nc4ccccc4)ncc3C2)cc1 — 5.4-fold lower, 21.1 ×10⁻⁶ cm/s
- CC(C)(C)C(=O)N1CCN(c2nccc(Nc3ccccc3Cl)n2)CC1 — 7.9-fold higher, 895 ×10⁻⁶ cm/s
- NC(=O)C1CCN(c2nccc(-c3ccc4c(c3)OCCO4)n2)CC1 — 1.7-fold higher, 191 ×10⁻⁶ cm/s
- CCOc1cc(=O)n2c(c1C(=O)Nc1cc(OC)c(Cl)cc1OC)CCCC2 — 1.6-fold lower, 68.7 ×10⁻⁶ cm/s
- Cc1ccc2c(c1)N(S(=O)(=O)c1cc(-c3onc(C)c3C)ccc1C)CCO2 — 2-fold higher, 226 ×10⁻⁶ cm/s
- C[C@@]1(c2ncncc2F)NC(=O)c2cc(-c3cn[nH]c3)ccc21 — higher, > 1000 ×10⁻⁶ cm/s
- COc1ccccc1-c1[nH]nc2ncc(-c3ccc(C)cc3)nc12 — 59-fold lower, 1.92 ×10⁻⁶ cm/s
- CC(C)Oc1cccc(C2CC(=O)Nc3cc4c(cc32)OCO4)c1 (stereo not drawn) — 6.9-fold higher, 785 ×10⁻⁶ cm/s
- CC(=O)NCCNC(=O)c1ccc(-c2ncc3cnc(-c4cccc(F)c4)cn23)cc1 — 15-fold lower, 7.62 ×10⁻⁶ cm/s
- CCOC(=O)c1[nH]c(C)c(CCC(=O)N2CCN(c3cc(C)ccc3C)CC2)c1C — higher, > 1000 ×10⁻⁶ cm/s
- CN(C)[C@@H]1CCN(c2cccc(Nc3nn4c(=O)c5ccccc5nc4s3)c2)C1 — 4.5-fold lower, 24.9 ×10⁻⁶ cm/s
- CC(=O)Nc1ccc(NC(=O)C(NS(=O)(=O)c2ccc(Br)s2)c2ccccc2)cc1 (stereo not drawn) — 7-fold lower, 16.2 ×10⁻⁶ cm/s
- O=C(COc1ccccc1)NCC(c1cccs1)S(=O)(=O)c1ccc(Cl)cc1 (stereo not drawn) — 7.6-fold higher, 855 ×10⁻⁶ cm/s
- Cc1nc2nc(NC(=O)c3ccc(C(C)(C)C)cc3)[nH]n2c(=O)c1Cl — within 1.5-fold, 83.9 ×10⁻⁶ cm/s
- CCOC(=O)C1CCN(c2ncc(-c3ccc4c(c3)OCCCO4)s2)CC1 — higher, > 1000 ×10⁻⁶ cm/s
- O=C(Nc1cccc(F)c1)c1cc(-c2ccc[nH]2)n[nH]1 — within 1.5-fold, 75.6 ×10⁻⁶ cm/s
- COC(=O)c1ccc(O)c2ncc(N3CCN(C)CC3)cc12 — within 1.5-fold, 80.1 ×10⁻⁶ cm/s
- Cc1cc(NS(=O)(=O)c2ccc3c(c2)CCC(=O)N3)ccc1F — 4.1-fold higher, 463 ×10⁻⁶ cm/s
- CN1CCN(C2=Nc3ccccc3Sc3ccc(Cl)cc32)CC1 — 7.8-fold higher, 887 ×10⁻⁶ cm/s
- CCCCn1cc2c(c1-c1ccc(Br)cc1)c(=O)n(C)c(=O)n2C — higher, > 1000 ×10⁻⁶ cm/s
- Cc1ccc(CNCc2cn[nH]c2-c2ccc(C)cc2)cc1 — 3.6-fold higher, 410 ×10⁻⁶ cm/s
- Cc1nn2c(c1-c1ccccc1-c1ccccc1)N(Cc1ccc(C(=O)O)s1)CCC2 — 4.6-fold higher, 523 ×10⁻⁶ cm/s
- O=C(NC1CCCc2c1[nH]c1c(Cl)cccc21)c1ccc2c(c1)OCO2 (stereo not drawn) — 1.7-fold higher, 190 ×10⁻⁶ cm/s
- COc1cc([C@@H]2c3cc4c(cc3[C@H](O)[C@H]3COC(=O)[C@H]23)OCO4)cc(OC)c1OC — 2.3-fold higher, 262 ×10⁻⁶ cm/s
- COc1ccc(-n2nc(C3CCN([S+](=O)([O-])c4c(C)noc4C)CC3)[nH]c2=O)cc1 — 2.7-fold higher, 308 ×10⁻⁶ cm/s
- Nc1c(S(=O)(=O)c2cccs2)c2nc3ccccc3nc2n1Cc1ccccc1 — higher, > 1000 ×10⁻⁶ cm/s
- COc1ccc(-c2cc(-c3ccccc3)nc(SCC(=O)Nc3ccccc3C)c2C#N)cc1 — 5.2-fold higher, 587 ×10⁻⁶ cm/s
- COc1ccc(-c2c(-c3cc(C(=O)O)ccn3)ncn2C)cc1 — 42-fold lower, 2.67 ×10⁻⁶ cm/s
- NCC(=O)Nc1cncc(-c2nn3c(=O)cc(N4CCNCC4)nc3s2)c1 — 110-fold lower, 1.07 ×10⁻⁶ cm/s
- O=C(NCc1ccc(S(=O)(=O)c2cccc(C(F)(F)F)c2)cc1)c1cnc2[nH]ncc2c1 — 3.2-fold higher, 362 ×10⁻⁶ cm/s
- C=CCc1ccc(O)c(-c2ccc(O)c(CC=C)c2)c1 — 3.9-fold higher, 446 ×10⁻⁶ cm/s
- COc1cc(C(=O)NC2CCCc3c2[nH]c2c(Cl)cccc32)cc(OC)c1OC (stereo not drawn) — 3.4-fold higher, 384 ×10⁻⁶ cm/s
- COc1ccc(-c2ccc3ncc(Nc4ccc(C(N)=O)cc4)n3n2)cc1OC — within 1.5-fold, 81.8 ×10⁻⁶ cm/s
- OC1(c2ccc(Cl)cc2)CCN(Cc2c[nH]c3ccccc23)CC1 — 3.7-fold higher, 419 ×10⁻⁶ cm/s
- COc1cc2c(c(OC)c1OC)-c1ccc(OC)c(=O)cc1[C@@H](NC(C)=O)CC2 — 25-fold lower, 4.51 ×10⁻⁶ cm/s
- CN1CCN(c2ccc(Nc3c4ccccc4nc4ccccc34)cc2)CC1 — 30-fold lower, 3.75 ×10⁻⁶ cm/s
- COc1cc2ncnc(Nc3ccc(Oc4ccccc4)cc3)c2cc1OC — 8.7-fold higher, 981 ×10⁻⁶ cm/s
- COc1ccc(-c2noc(CSc3nnc(Cc4ccccc4)n3-c3ccc(F)cc3)n2)cc1 — higher, > 1000 ×10⁻⁶ cm/s
- CSc1ccccc1N1CCN(CCCCCC(=O)NC2CCCc3ccccc32)CC1 (stereo not drawn) — 5.6-fold higher, 628 ×10⁻⁶ cm/s
- CSc1nn(Cc2cccc(C)c2)c(N)c1S(=O)(=O)c1ccccc1 — 7.8-fold higher, 878 ×10⁻⁶ cm/s
- CCN(CC)CCCC(C)Nc1cc(/C=C/c2ccccc2Cl)nc2cc(Cl)ccc12 (stereo not drawn) — within 1.5-fold, 82.9 ×10⁻⁶ cm/s
- Cc1nn2c(c1-c1ccccc1-c1ccccc1)N(CC1CC1)CCC2 — higher, > 1000 ×10⁻⁶ cm/s
- CCOC(=O)c1ccc(NC(=O)c2sc3nc4c(cc3c2N)N2CCC4CC2)cc1 — 6.4-fold higher, 720 ×10⁻⁶ cm/s
- C[C@H]1CN(C(=O)Nc2ccc(F)cc2F)C[C@@H]1c1nc(-c2ccccc2)no1 — 8.1-fold higher, 917 ×10⁻⁶ cm/s
- Oc1ccc(CN2CC(CNc3ccccc3)C3(C2)CN(c2ccccc2)C3)cc1 (stereo not drawn) — higher, > 1000 ×10⁻⁶ cm/s
- Cc1c(-c2cccc(NC(=O)c3ccc(F)c(F)c3)c2)nc2ncccn12 — 6.3-fold higher, 710 ×10⁻⁶ cm/s
- CCC(CC)c1cc([C@H]2CN3CC[C@H]2C[C@@H]3CNC(C)=O)nc(-c2ccncc2)n1 — 7.6-fold lower, 14.9 ×10⁻⁶ cm/s
- C[C@]12N[C@H](Cc3ccccc31)c1ccccc12 — 1.6-fold lower, 72.8 ×10⁻⁶ cm/s
- O=C(O)C1CCN(c2ncc(-c3ccc4c(c3)OCCCO4)s2)CC1 — higher, > 1000 ×10⁻⁶ cm/s
- COc1cc(NC(=O)c2cc(-c3ccccc3O)no2)cc(OC)c1OC — higher, > 1000 ×10⁻⁶ cm/s
